According to the NIST ThermoML archive (doi:10.1016/j.fluid.2012.01.008):
Numbers after ± are expanded uncertainties.

Conditions: 313.15 K; Liquid; Closed cell (Static) method

Structure (SMILES)	vapor or sublimation pressure [kPa]
Cc1ccccc1 [toluene]	7.886 ± 0.022
CCCCCCC [heptane]	12.34 ± 0.03
